US20230127304A1, “NEW INHIBITORS FOR THE KEAP1-NRF2 PROTEIN-PROTEIN INTERACTION” (PRESIDENT AND FELLOWS OF HARVARD COLLEGE, priority 2020, published 2023)
“Also recorded” adds a separate entry of the source. Like-named read-outs stand apart in the source and are kept apart here.

Legend:
GST-KEAP1 = molecular target: T1, GST-KEAP1 (Mus musculus, UniProt Q9Z2X8); experiment: SPR Level-3 steady-state binding
T1 construct: mouse KEAP1 Kelch domain (residues 322-624); made in house; host or cells: E. coli BL21(DE3)
Description: Req=(Rmax*C)/(Kd+C)+b, (1)
The biphasic binding model is given by the equation
Req=(Rmax,1*C)/(Kd,1+C)+Rmax,2*C/(Kd,2+C)+b, (2)

NRF2-KEAP1 interaction [1] = molecular target: T2, NRF2-KEAP1 interaction (Mus musculus, UniProt Q9Z2X8); experiment: Fluorescence polarization (FP) Level-2 NRF2 peptide displacement; assay type: binding; details: for FP Assay: ability to displace the NRF2-peptide
T2 construct: mouse KEAP1 Kelch domain (residues 322-624); made in house; host or cells: E. coli BL21(DE3); peptide purchased from GenScript USA Inc
Protocol: The measurements were carried out in triplicate, and the three data points for each concentration averaged. IC50 values were determined by fitting the averaged data points to a four parameter logistic curve using the non-linear least squares method provided by the SciPy library for Python^33. The standard error (see Table 5) on the IC50 was computed by taking the square root of the diagonal of the parameter covariant matrix.

NRF2-KEAP1 interaction [2] = molecular target: T2, NRF2-KEAP1 interaction; experiment: BLI displacement assay; assay type: binding; details: ability to displace the NRF2-peptide
Protocol: Bio-layer interferometry binding and displacement assays: NRF2-KEAP1 binding BLI experiments were performed on an Octet RED384 (ForteBio, Menlo Park, Calif., USA) using streptavidin-coated Dip and Read Biosensors (ForteBio) and 384 well plates with 120 μL volume. […] To test for nonspecific binding of GST-KEAP1 protein, reference tips were incubated in buffer alone. […] After measuring association, tips were moved to wells containing buffer, and dissociation was measured for 5 minutes. The data were processed and analysed using the Octet data analysis software version 11.0 (ForteBio, Inc., Menlo Park, Calif., USA). The association-dissociation curve for each concentration was fitted using a 1:1 model given by the equations
Compound screening by BLI displacement assay: The BLI displacement assays were setup as described above. […] The compounds were used at concentrations of […], and pre-incubated with GST-KEAP1 protein. The association phase was measured in the well containing compound with GST-KEAP1 protein for 10 minutes, and followed by a dissociation phase in buffer for 5 minutes. The inhibition percentage was the average BLI signal in the last 50 seconds of the dissociation phase, normalized against the condition of GST-KEAP1 protein in the absence of compound.

KEAP1 = molecular target: T3, KEAP1 (Mus musculus, UniProt Q9Z2X8); experiment: Ligand-detected NMR (DLB, STD, CPMG); assay type: binding; details: 50 μM compound, 5 μM KEAP1 (2.5 μM for iKeap1 and iKeap2)
T3 construct: The cleaved mouse KEAP1 Kelch domain (residues 322-624) consists of 308 amino acids; GST (N, cleaved yes); made in house; host or cells: E. coli BL21(DE3)

[3] = Dynamic light scattering (DLS) aggregation; assay type: physicochemical; details: 20 μM compound, triplicates average
Protocol: To test the potential aggregation of hits we used DLS experiments. The experiments were performed on a ZS90 Zetasizer instrument (Malvern Panalytical, UK). Measurements were done in triplicate with 10 scans per run (100 s). […] The 20 μM working solution was made from a 1 mM stock of the compound in DMSO. The data was analysed by the built-in software. Compounds were classified as aggregated when the radius of the measured particles was above the minimum colloidal aggregate size (for small molecules) of 50 nm^39.

NQO1 = NQO1 assay; assay type: cell-based; details: Hepa1c1c7 cells, 48 h; for specific activity of NQO1: 0 uM = 1
Protocol: In this study, the inventors used a […] assay to quantitate the NQO1 levels. […] Specifically, Hepa1c1c7 cells were exposed in 8 replicates to a vehicle ([…]) or 8 serial dilutions of each compound for 48 h. Cells were then lysed and the specific activity of NQO1 was determined using menadione as a substrate.

NMR solubility assay = assay type: physicochemical; details: 5 μM to 30 μM, PBS buffer, pH 7.4
[4] = SPR Level-3, independent experiment 2, compounds marked * fitted with biphasic binding model, read-out: Kd, 2

T3 sequence (Q9Z2X8 322-624): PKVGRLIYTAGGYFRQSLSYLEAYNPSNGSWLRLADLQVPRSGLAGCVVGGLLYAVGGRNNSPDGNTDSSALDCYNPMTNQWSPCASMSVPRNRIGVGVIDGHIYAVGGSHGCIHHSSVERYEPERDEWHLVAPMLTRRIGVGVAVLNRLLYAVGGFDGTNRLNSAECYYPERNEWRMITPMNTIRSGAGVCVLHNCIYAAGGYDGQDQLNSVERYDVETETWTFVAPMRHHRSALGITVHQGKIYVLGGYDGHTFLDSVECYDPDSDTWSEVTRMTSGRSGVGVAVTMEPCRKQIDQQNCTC
T1 sequence (Q9Z2X8 322-624): as above
T2 sequence (Q9Z2X8 322-624): as above

SMILES	FP Assay (NRF2-KEAP1 interaction [1])	BLI Assay (NRF2-KEAP1 interaction [2])	binding to KEAP1 by ligand-detected NMR (KEAP1)	Radius [3]	specific activity of NQO1 (NQO1; 0.156 uM)	specific activity of NQO1 (NQO1; 0.313 uM)	specific activity of NQO1 (NQO1; 0.625 uM)	specific activity of NQO1 (NQO1; 1.25 uM)	specific activity of NQO1 (NQO1; 2.5 uM)	specific activity of NQO1 (NQO1; 5 uM)	specific activity of NQO1 (NQO1; 10 uM)	specific activity of NQO1 (NQO1; 20 uM)	further results
O=S(=O)(N=C1CCCCCN1)c1ccc2sc(NS(=O)(=O)c3ccc4ccccc4c3)nc2c1 [iKeap9]	not able to effectively displace the NRF2 peptide	not able to effectively displace the NRF2 peptide	bind to KEAP1	1.862 nm	–	–	–	–	–	–	–	–	Kd (GST-KEAP1; [4]): 187 nM
C[C@H]1CCc2c(sc3ncnc(N4CCO[C@@H](CN5C(=O)c6ccccc6C5=O)C4)c23)C1 [iKeap73]	not active	active	–	2.510 nm	–	–	–	–	–	–	–	–	–
C[C@@H]1Oc2ccc(C(=O)C3CCN(C(=O)[C@H]4C[C@H]4c4cccc5ccccc45)CC3)cc2NC1=O [iKeap74]	not active	active	–	3.034 nm	–	–	–	–	–	–	–	–	–
O=S(=O)(Nc1nc2ccccc2nc1N1CCC[C@@H](c2nc3ccccc3[nH]2)C1)c1ccccc1 [iKeap33]	not active	active	–	1.585 nm	–	–	–	–	–	–	–	–	–
Cc1cccn2c(=O)c3c(nc12)N1CCCCC[C@H]1[C@]1(C3)C(=O)N(Cc2ccccc2Cl)C(=O)N=C1O [iKeap75]	not active	active	–	3.612 nm	–	–	–	–	–	–	–	–	–
Cc1ccc(C)c(N2C(=O)c3ccc(-c4nc(-c5ccc6[nH]nnc6c5)no4)cc3C2=O)c1 [iKeap27]	not active	active	–	2.643 nm	–	–	–	–	–	–	–	–	–
CC1=NN(c2ccccc2)C(=O)/C1=C\c1ccc(-c2cc(C(=O)O)ccc2Cl)o1 [iKeap7]	displacer of the NRF2 peptide; also recorded: active	displacer of the NRF2 peptide; also recorded: active	bind to KEAP1	3.663 nm	1.06	1.08	1.13	1.17	1.3	1.44	1.65	2.08	CD (NQO1): 20 µM
O=S(=O)(O)c1ccc(/N=N\c2ccc(/N=N\c3ccc(O)c4cccc(S(=O)(=O)O)c34)cc2)cc1 [iKeap18]	–	–	–	–	1.09	1.09	1.19	1.18	1.29	1.39	1.58	1.79	CD (NQO1; extrapolated (extp)): 40 (extp) uM
Cc1ccc(S(=O)(=O)Oc2nc3nc4ccccc4nc3nc2OS(=O)(=O)c2ccc(C)cc2)cc1 [iKeap1]	–	–	–	2.306 nm	1.19	1.28	1.41	1.68	2.1	2.66	3.53	4.18	aggregation in NMR solubility assay (NMR solubility assay): does not aggregate; CD (NQO1): 2 µM
O=C(c1cc(-c2ccc3c(c2)OCCO3)nc2ccccc12)N1CCC(Cc2ccccc2)CC1 [iKeap41]	not active	active	–	4.446 nm	–	–	–	–	–	–	–	–	–
CC(=O)N/C(=C\c1ccc(Cc2nc3c([nH]2)C(=O)c2ccccc2C3=O)cc1)c1nc2c([nH]1)C(=O)c1ccccc1C2=O [iKeap48]	not active	active	–	25.579 nm	–	–	–	–	–	–	–	–	–
O=C1OC(c2ccc([N+](=O)[O-])cc2)=N/C1=C\c1cccc2ccccc12 [iKeap4]	–	–	–	–	1.06	1.1	1.21	1.18	1.27	1.47	1.75	2.2	CD (NQO1): 15 µM
O=C(Nc1cccc(-c2nnn[nH]2)c1)[C@@H]1C[C@H]2CCCC[C@H]2N1C(=O)c1ccc2ccccc2c1 [iKeap8]	able to displace the NRF2 peptide; also recorded: active	able to displace the NRF2 peptide; also recorded: active	bind to KEAP1	3.340 nm	1.07	1.04	1.06	1.11	1.08	1.11	1.16	1.21	–
O=C1C[C@@H](c2ccc3ncccc3c2)c2c(cc(O)c3c(=O)cc(-c4ccc(O)cc4)oc23)O1 [iKeap22]	not active	displacer; also recorded: active	bind to KEAP1	2.547 nm	–	–	–	–	–	–	–	–	–
O=C(O)c1ccc(NC2=C/C(=N\S(=O)(=O)c3ccc4ccccc4c3)c3ccccc3C2=O)cc1 [iKeap2]	active	able to displace the NRF2 peptide from KEAP1; also recorded: active	directly bind to KEAP1	12.492 nm	1.13	1.2	1.33	1.49	1.91	2.75	6.08	–	Kd (GST-KEAP1; SPR Level-3, average of three independent experiments, read-out: Kd average): 252 nM; Kd (GST-KEAP1; [4]): 263 nM; Kd (GST-KEAP1; SPR Level-3, independent experiment 3, compounds marked * fitted with biphasic binding model, read-out: Kd, 3): 334 nM; Kd (GST-KEAP1; steady-state SPR, read-out: Kd (binding affinity to KEAP1)): 158 nM; IC50 (NRF2-KEAP1 interaction [1]; Level-2 FP, displacement of TAMRA-NRF2 peptide): 2700 nM; CD (NQO1): 2.7 µM
